According to US7335380B2 (Synthon IP Inc., priority 2000, dated 2008):
In brackets after ≈: the same amount, converted by molar mass. Values belong to the compound of their own block, whether it stands above or below them.

Experiments:
[1] = Solid-state stability of crystalline Form II on standing; type: physicochemical; settings: after 1 month standing at 60° C.
Protocol: The amlodipine free base can be of any form including crystalline form I, crystalline form II or amorphous. […] This form corresponds to the material described by […] and Deasy. […] Although it is possible to convert Form II into Form I by applying sufficiently high temperatures, generally over 100 C., Form II is generally stable at ambient conditions and even at moderately elevated temperatures. For instance, the Form II is stable after 1 month standing at 60° C. Accordingly, Form II is thus useful in manufacturing of pharmaceutical final forms. The amlodipine free base in the tablet of the present invention can be of a single type or can be a mixture. For example, a mixture of crystalline Forms I and II.

[2] = Stickiness comparison (average punch residue of tablets); type: physicochemical; settings: tablets with microcrystalline cellulose and calcium sulphate dihydrate, 20 mm punch, 400 mg tablet, slope over runs of 50-300 tablets
Protocol: An amlodpine free base tablet according to the present invention is preferably a low punch residue tablet. A “low punch residue” as used herein means that the average amount of amlodipine left on a tablet punch is not more than 1 μg/cm^2 per tablet based on a 20 mm round flat punch with a compression force of 15 kilo-newtons. Preferably, the tablet has an average punch residue of 0.7 μg/cm^2 per tablet, more preferably 0.6 μg/cm^2 per tablet. The amount of amlodipine residue can be measured by the process described in EP 244 944. In general the method involves washing the punch after runs of 50, 100, 150, 200, 250 and 300 tablets, using methanol and an ultrasonic bath. The amount of amlodipine in the samples is measured by uv and the total amount of amlodipine extracted from both the upper and lower punch is plotted against the amount of tablets made. An average value for amlodipine residue (stickiness) is calculated from the slope of the regression line by forcing the y-intercept of the line through zero.
After 50 tablets, the tablet material was extracted from the punches using methanol and an ultrasonic bath. […] The extracts together with Amlodipine calibration samples were measured spectrometrically. […] An average value for stickiness was calculated from the slope of the regression line by forcing the y-intercept of the line through zero.

[3] = solid amlodipine free base; Int. J. of Pharmaceutics 133, 71-83 (1996); cited from earlier work

stability of crystalline form [1]: stable
SMILES: CCOC(=O)C1=C(COCCN)NC(C)=C(C(=O)OC)C1c1ccccc1Cl (stereo not shown) [Form II]

Average residue (stickiness) [2]: 1.16 μg ADP.cm^−2.tablet^−1
SMILES: CCOC(=O)C1=C(COCCN)NC(C)=C(C(=O)OC)C1c1ccccc1Cl (stereo not shown) [amlodipine besylate]

Average residue (stickiness) ([2]; listed as Amlodipine base): 0.55 μg ADP.cm^−2.tablet^−1
SMILES: CCOC(=O)C1=C(COCCN)NC(C)=C(C(=O)OC)C1c1ccccc1Cl (stereo not shown) [amlodipine free base, 2-[(2-aminoethoxy)methyl]-4-(2-chlorophenyl)-3-ethoxycarbonyl-5-methoxycarbonyl-6-methyl-1,4-dihydropyridine]
aqueous solubility [3]: 77.4 µg/mL (≈ 189 µM)
